Source: patent publication US20050288347A1, “Certain triazole-based compounds, compositions, and uses thereof” (priority 2004, published 2005)
“Also recorded” adds a separate entry of the source.

Target: protein kinase
Assay: HTS ATP-utilizing enzyme assay, off-chip mobility-shift format (Caliper HTS 250)
Format: biochemical, human
Settings: test compound 10 μM; for Kinase: kinase(s) for which the compound exhibits protein kinase inhibitory activity, active = greater than three-sigma from the mean activity of inactive compounds; for protein kinase against which the compound exhibits inhibitory activity (Table 3): active = activity greater than three-sigma from the mean of the predominately inactive population for that enzyme
Method in brief: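 Kinase reactions ran 2.5 h at 20 to 22 °C with test compound at 10 μM, in a HEPES pH 7.5 master buffer containing Triton X-100 and BSA. Peptide substrate and phosphorylated product separated by mobility shift; inhibition normalized to DMSO (0%) and EDTA (100%) controls, with three-sigma thresholds for hits.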

SMILES | Kinase | protein kinase against which the compound exhibits inhibitory activity (Table 3)
O=C(CSc1nnc(-c2ccc([N+](=O)[O-])cc2)[nH]1)c1ccccc1 [2-(5-(4-nitrophenyl)-4H-1,2,4-triazol-3-ylthio)-1-phenylethanone] | FLT-3; also recorded: GSK3-β; also recorded: AURORA-A | –
c1csc(-c2nnc(SCc3ccncc3)[nH]2)c1 [4-((5-(thiophen-2-yl)-4H-1,2,4-triazol-3-ylthio)methyl)pyridine] | – | DYRK2; also recorded: AURORA-A; also recorded: FLT-3
C=C(C)Cn1c(SCC(=O)O)nnc1-c1ccco1 [2-(5-(furan-2-yl)-4-(2-methylallyl)-4H-1,2,4-triazol-3-ylthio)acetic acid] | HCK and CHEK2 | –
Cn1c(SCc2c(F)cccc2Cl)nnc1-c1ccncc1 [4-(5-(2-chloro-6-fluorobenzylthio)-4-methyl-4H-1,2,4-triazol-3-yl)pyridine] | – | GSK3-β; also recorded: AURORA-A
Cc1csc(NC(=O)CSc2nnc(-c3cccnc3)n2C)n1 | PAK2 | –
COc1ccc(-c2nnc(SCc3cccnc3)[nH]2)cc1 [3-((5-(4-methoxyphenyl)-4H-1,2,4-triazol-3-ylthio)methyl)pyridine] | – | AURORA-A; also recorded: FLT-3; also recorded: DYRK2
N#Cc1ccccc1CSc1nnc(-c2cccnc2)[nH]1 [2-((5-(pyridin-3-yl)-4H-1,2,4-triazol-3-ylthio)methyl)benzonitrile] | – | AURORA-A; also recorded: GSK3-α; also recorded: CHEK2
Cc1ccc(CCn2c(CCC3CCCC3)nnc2SCc2ccccc2)cc1 | – | AURORA-A; also recorded: c-TAK1
O=c1[nH]c(CSc2nnc(-c3ccccc3O)n2CCc2ccccc2)nc2ccccc12 | – | AKT1
Cc1ccc(C)c(-n2c(SCC(N)=O)nnc2-c2ccc(O)cc2)c1 | GSK3-β; also recorded: GSK3-α; also recorded: CDK2-cyclinE | –
Cc1nn(-c2ccccc2)c2sc(-c3nnc(SCCN4CCOCC4)n3C)cc12 | – | GSK3-α; also recorded: GSK3-β; also recorded: DAPK1
O=c1c(Sc2nnc(-c3ccccc3)n2C2CCCCC2)c(Br)cnn1-c1ccccc1 | GSK3-α | –
CCOC(=O)c1ccc(CSc2nnc(-c3ccc(OC(F)(F)F)cc3)[nH]2)o1 | – | FLT-3; also recorded: GSK3-β
Clc1cccc(-n2c(SCc3ccccc3)nnc2-c2ccncc2)c1 [4-(5-(benzylthio)-4-(3-chlorophenyl)-4H-1,2,4-triazol-3-yl)pyridine] | – | GSK3-β and AURORA-A and CDK1
COc1ccc(C(=O)NNC(=O)CSc2nnc(CNc3cccc(Cl)c3)n2CCc2ccccc2)cc1 | – | PDGFRR-α and GSK3-β and CDK1
COc1cccc(-n2c(SCC(=O)NC(C)(C)C)nnc2-c2cccnc2)c1 | AURORA-A | –
COc1ccc(NCc2nnc(SCC(=O)NNC(=O)c3ccc(C)cc3)n2C)cc1 | – | PDGFRR-α and FYN and FLT-3
Cc1ccc(NCc2nnc(S)n2-c2ccc(Cl)cc2)cc1 [5-((p-toluidino)methyl)-4-(4-chlorophenyl)-4H-1,2,4-triazole-3-thiol] | PAK2 and GSK3-α | –
COCCn1c(SCC(=O)Nc2cccc(O)c2)nnc1-c1ccncc1 | AKT1 | –
COc1ccc(OCc2nnc(SCC(=O)Nc3ccc(C)cc3Br)n2-c2ccccc2)cc1 | CDK1 | –
CCc1nnc(NC(=O)CSc2nnc(-c3ccc(O)cc3)n2-c2cccc(Cl)c2)s1 | GSK3-β; also recorded: GSK3-α | –
Cc1ccc(-n2c(SC(C)C(=O)O)nnc2-c2cccnc2)cc1 (stereo not drawn) [2-(5-(pyridin-3-yl)-4-p-tolyl-4H-1,2,4-triazol-3-ylthio)propanoic acid] | AURORA-A | –

SMILES | Kinase | protein kinase against which the compound exhibits inhibitory activity (Table 3)
NC(=O)CSc1nnc(CNc2cccc(Cl)c2)n1CCc1ccccc1 | CDK2-cyclinA and CDK1 and AURORA-A | –
CCOC(=O)c1sc(NC(=O)CSc2nnc(Cn3nnc4ccccc43)n2C)nc1C | GSK3-β | –
COc1ccc(NC(=O)CSc2nnc(-c3ccccc3O)n2-c2ccc(C)cc2)c(OC)c1 | MSK2 and CDK1 | –
CCOc1ccc(NCc2nnc(SCC(=O)N3CCN(C)CC3)n2-c2ccc(C)cc2)cc1 | FYN and AURORA-A | –
COc1ccc(-c2nnc(SCC(=O)NNC(=O)c3ccccc3O)n2-c2ccccc2)cc1OC | – | FYN and FLT-3
Cc1cccc(NCc2nnc(SCc3ccc(Cl)cc3)n2-c2ccccc2)c1 | – | PDGFRR-α and MSK2
COC(=O)CSc1nnc(CNc2ccc(OC)cc2)n1-c1ccccc1 | PDGFRR-α | –
COc1ccccc1OCc1nnc(S)n1C [5-((2-methoxyphenoxy)methyl)-4-methyl-4H-1,2,4-triazole-3-thiol] | GSK3-α | –
Cc1nnc(SCC2CCCCC2)[nH]1 [3-(cyclohexylmethylthio)-5-methyl-4H-1,2,4-triazole] | – | AURORA-A; also recorded: GSK3-α
CCn1c(SCC(=O)c2ccc(C)cc2)nnc1-c1ccc(S(=O)(=O)N2CCCCCC2)cc1 | AURORA-A | –
COCCn1c(SCC(=O)Nc2ccccc2F)nnc1-c1cc2ccccc2cc1O | AURORA-A | –
O=[N+]([O-])c1ccc(OCc2nnc(S)n2-c2ccccc2)cc1 [5-((4-nitrophenoxy)methyl)-4-phenyl-4H-1,2,4-triazole-3-thiol] | FLT-3; also recorded: PDGFRR-α | –
Cn1c(Cn2nnc3ccccc32)nnc1SCC(=O)Nc1cccc(O)c1 | GSK3-α | –
N#CCSc1nnc(-c2ccc(O)cc2)n1Cc1ccco1 | GSK3-β; also recorded: GSK3-α; also recorded: AURORA-A | –
c1cncc(-c2nnc(SCCN3CCCCC3)[nH]2)c1 | – | GSK3-α
O=C(CSc1nnc(-c2ccncc2)n1-c1ccc(F)cc1)NN(O)C(=O)c1ccccc1 | – | FYN
Cc1ccc(-n2c(SCC(=O)O)nnc2-c2cccnc2)cc1 [2-(5-(pyridin-3-yl)-4-p-tolyl-4H-1,2,4-triazol-3-ylthio)acetic acid] | AURORA-A | –
O=C(O)CSc1nnc(-c2ccc([N+](=O)[O-])cc2)n1CC1CCCO1 (stereo not drawn) | PDGFRR-α | –
CCc1nnc(NC(=O)CSc2nnc(-c3ccc(NS(=O)(=O)c4ccc(C)cc4)cc3)n2C)s1 | PDGFRR-α | –
COc1ccccc1NC(=O)CSc1nnc(CNc2cccc(Cl)c2)n1-c1ccccc1 | MSK1 and SGK1 | –
Cc1ccc(-c2nnc(CSc3nnc(COc4ccccc4)n3-c3ccc(C)cc3)o2)cc1 | – | GSK3-α
COc1ccc(-n2c(SCC(=O)O)nnc2-c2ccccc2OC)cc1 | AURORA-A | –

SMILES | Kinase | protein kinase against which the compound exhibits inhibitory activity (Table 3)
CCOC(=O)c1sc(NC(=O)CSc2nnc(-c3ccc(O)cc3)n2CC2CCCO2)nc1C (stereo not drawn) | GSK3-β; also recorded: GSK3-α | –
COc1ccc(OCc2nnc(SCC(=O)Nc3ccccc3OC)n2C)cc1 | PDGFRR-α and PKA | –
CCn1c(CNc2cccc(Cl)c2)nnc1SCC(=O)Nc1ccccc1C(=O)OC | AURORA-A | –
Cn1c(SCC(=O)Nc2nccs2)nnc1-c1cc2ccccc2cc1O | GSK3-β; also recorded: GSK3-α | –
CCn1c(SCC(=O)N2CCOCC2)nnc1-c1ccc(S(=O)(=O)N2CCCCC2)cc1 | PAK2 | –
COc1ccccc1-c1nnc(SCCC(=O)O)n1-c1cccc(Cl)c1 | – | CHEK2
Cc1ccc(-n2c(SCC(=O)NNC(=O)c3ccccc3O)nnc2-c2ccccc2O)cc1 | – | AURORA-A
CCOc1cc(NC(=O)c2cccs2)c(OCC)cc1NC(=O)CSc1nnc(-c2ccc(O)cc2)n1C | PDGFRR-α | –
COc1ccc(-n2c(Cc3ccccc3)nnc2SCC(=O)Nc2ccccc2)cc1 | CHEK2 | –
CCn1c(CNc2cccc(Cl)c2)nnc1SCC(=O)NCc1ccco1 | PAK2 | –
CCCCSc1nnc(-c2ccc(OC)cc2)[nH]1 [3-(butylthio)-5-(4-methoxyphenyl)-4H-1,2,4-triazole] | – | AURORA-A; also recorded: FLT-3; also recorded: GSK3-α
CCn1c(SCC(=O)NNC(=O)C2CCCCC2)nnc1-c1ccncc1 | – | AURORA-A
CCn1c(SCC(=O)Nc2nc3ccccc3s2)nnc1-c1cccnc1 | GSK3-β; also recorded: GSK3-α; also recorded: CDK2-cyclinE | –
CCn1c(CNc2ccc(C)cc2C)nnc1SCC(=O)Nc1ccccc1-c1ccccc1 | GSK3-α | –
COc1ccc(-c2nnc(SCC#N)[nH]2)cc1 [2-(5-(4-methoxyphenyl)-4H-1,2,4-triazol-3-ylthio)acetonitrile] | FLT-3; also recorded: DYRK2; also recorded: AURORA-A | –
C(=C\c1ccccc1)/CSc1nnc(-c2ccncc2)n1-c1ccccc1 [(E)-4-(5-(cinnamylthio)-4-phenyl-4H-1,2,4-triazol-3-yl)pyridine] | – | GSK3-β and GSK3-α and MSK1
COc1ccc(-c2nnc(SCC(=O)Nc3cccc(Cl)c3)n2-c2ccccc2)cc1 | PRAK and CHEK2 and AURORA-A | –
Cc1ccc(C(=O)NNC(=O)CSc2nnc(COc3ccc(C#N)cc3)n2-c2ccccc2)cc1 | – | LCK
COc1ccc(-c2nnc(SCC3CCCCC3)[nH]2)cc1 [3-(cyclohexylmethylthio)-5-(4-methoxyphenyl)-4H-1,2,4-triazole] | – | AURORA-A; also recorded: c-TAK1
CCOCCSc1nnc(-c2cccs2)[nH]1 [3-(2-ethoxyethylthio)-5-(thiophen-2-yl)-4H-1,2,4-triazole] | – | AURORA-A; also recorded: DYRK2; also recorded: GSK3-β
CCn1c(COc2ccc(Br)cc2)nnc1SCCC(=O)O | – | AURORA-A
O=C(O)CSc1nnc(-c2ccc(O)cc2)n1Cc1ccco1 | GSK3-β; also recorded: GSK3-α | –
